Measurements reported in PMC3523469 (Investigational New Drugs, 2012).
Read-outs that look alike come from different tables or passages of the source.

Assay type: in vivo, Japanese patients

With `COc1cc2ncnc(Nc3ccc(F)c(Cl)c3)c2cc1NC(=O)/C=C/CN1CCCCC1` [dacomitinib, Dacomitinib] the “Dry skin, number of patients with treatment-related AE” value (from here on “Dry skin, number of patients”) (30 mg QD (n = 3), G3) was 0, the “ECG QT prolonged, number of patients with treatment-related AE” value (from here on “ECG QT prolonged, number of patients”) (30 mg QD (n = 3), G3) was 0 and the “Edema, number of patients with treatment-related AE” value (from here on “Edema, number of patients”) (30 mg QD (n = 3), G3) was 0. The “Fatigue, number of patients with treatment-related AE” value (shortened to “Fatigue, number of patients”) (30 mg QD (n = 3), G3) was 0, the “Hematuria, number of patients with treatment-related AE” value (from here on “Hematuria, number of patients”) (30 mg QD (n = 3), G3) was 0 and the “Hypertrichosis, number of patients with treatment-related AE” value (shortened to “Hypertrichosis, number of patients”) (30 mg QD (n = 3), G3) was 0. The “Leukopenia, number of patients with treatment-related AE” value (“Leukopenia, number of patients” for short) (30 mg QD (n = 3), G3) was 0, the “Nausea, number of patients with treatment-related AE” value (“Nausea, number of patients” below) (30 mg QD (n = 3), G3) was 0 and the “Palmar–plantar erythrodysesthesia, number of patients with treatment-related AE” value (shortened to “Palmar–plantar erythrodysesthesia”) (30 mg QD (n = 3), G3) was 0. The “Paronychia, number of patients with treatment-related AE” value (“Paronychia, number of patients” below) (30 mg QD (n = 3), G3) was 0, the “Proteinuria, number of patients with treatment-related AE” value (shortened to “Proteinuria, number of patients”) (30 mg QD (n = 3), G3) was 0 and the “Rash, number of patients with treatment-related AE” value (from here on “Rash, number of patients”) (30 mg QD (n = 3), G3) was 0. For the same compound, the “Skin fissures, number of patients with treatment-related AE” value (from here on “Skin fissures, number of patients”) (30 mg QD (n = 3), G3) was 0, the “Stomatitis, number of patients with treatment-related AE” value (shortened to “Stomatitis, number of patients”) (30 mg QD (n = 3), G3) was 0 and the “Weight decreased, number of patients with treatment-related AE” value (“Weight decreased, number of patients” for short) (30 mg QD (n = 3), G3) was 0. For the same compound, the “Alanine aminotransferase increased, number of patients with treatment-related AE” value (from here on “Alanine aminotransferase increased”) (45 mg QD (n = 7), All) was 2, the “Aspartate aminotransferase increased, number of patients with treatment-related AE” value (shortened to “Aspartate aminotransferase increased”) (45 mg QD (n = 7), All) was 2 and the “Blood bilirubin increased, number of patients with treatment-related AE” value (from here on “Blood bilirubin increased, number”) (45 mg QD (n = 7), All) was 2. For the same compound, the “Cheilitis, number of patients with treatment-related AE” value (from here on “Cheilitis, number of patients”) (45 mg QD (n = 7), All) was 2, the “Conjunctivitis, number of patients with treatment-related AE” value (from here on “Conjunctivitis, number of patients”) (45 mg QD (n = 7), All) was 3 and the “Decreased appetite, number of patients with treatment-related AE” value (shortened to “Decreased appetite, number of patients”) (45 mg QD (n = 7), All) was 2. For the same compound, the “Diarrhea, number of patients with treatment-related AE” value (“Diarrhea, number of patients” below) (45 mg QD (n = 7), All) was 7, the “Dry skin, number of patients” value (45 mg QD (n = 7), All) was 5 and the “ECG QT prolonged, number of patients” value (45 mg QD (n = 7), All) was 0. The “Edema, number of patients” value (45 mg QD (n = 7), All) was 2, the “Fatigue, number of patients” value (45 mg QD (n = 7), All) was 5 and the “Hematuria, number of patients” value (45 mg QD (n = 7), All) was 2. For the same compound, the “Hypertrichosis, number of patients” value (45 mg QD (n = 7), All) was 2, the “Leukopenia, number of patients” value (45 mg QD (n = 7), All) was 3 and the “Nausea, number of patients” value (45 mg QD (n = 7), All) was 2. For the same compound, the “Palmar–plantar erythrodysesthesia” value (45 mg QD (n = 7), All) was 2, the “Paronychia, number of patients” value (45 mg QD (n = 7), All) was 6 and the “Proteinuria, number of patients” value (45 mg QD (n = 7), All) was 3. For the same compound, the “Rash, number of patients” value (45 mg QD (n = 7), All) was 7, the “Skin fissures, number of patients” value (45 mg QD (n = 7), All) was 2 and the “Stomatitis, number of patients” value (45 mg QD (n = 7), All) was 5. For the same compound, the “Weight decreased, number of patients” value (45 mg QD (n = 7), All) was 2, the “Alanine aminotransferase increased” value (45 mg QD (n = 7), G1) was 0 and the “Aspartate aminotransferase increased” value (45 mg QD (n = 7), G1) was 0. The “Blood bilirubin increased, number” value (45 mg QD (n = 7), G1) was 0, the “Cheilitis, number of patients” value (45 mg QD (n = 7), G1) was 2 and the “Conjunctivitis, number of patients” value (45 mg QD (n = 7), G1) was 3. For the same compound, the “Decreased appetite, number of patients” value (45 mg QD (n = 7), G1) was 0, the “Diarrhea, number of patients” value (45 mg QD (n = 7), G1) was 4 and the “Dry skin, number of patients” value (45 mg QD (n = 7), G1) was 5. For the same compound, the “ECG QT prolonged, number of patients” value (45 mg QD (n = 7), G1) was 0, the “Edema, number of patients” value (45 mg QD (n = 7), G1) was 1 and the “Fatigue, number of patients” value (45 mg QD (n = 7), G1) was 1. The “Hematuria, number of patients” value (45 mg QD (n = 7), G1) was 2, the “Hypertrichosis, number of patients” value (45 mg QD (n = 7), G1) was 2 and the “Leukopenia, number of patients” value (45 mg QD (n = 7), G1) was 1. The “Nausea, number of patients” value (45 mg QD (n = 7), G1) was 1, the “Palmar–plantar erythrodysesthesia” value (45 mg QD (n = 7), G1) was 0 and the “Paronychia, number of patients” value (45 mg QD (n = 7), G1) was 1. The “Proteinuria, number of patients” value (45 mg QD (n = 7), G1) was 2, the “Rash, number of patients” value (45 mg QD (n = 7), G1) was 1 and the “Skin fissures, number of patients” value (45 mg QD (n = 7), G1) was 1. The “Stomatitis, number of patients” value (45 mg QD (n = 7), G1) was 4, the “Weight decreased, number of patients” value (45 mg QD (n = 7), G1) was 0 and the “Alanine aminotransferase increased” value (45 mg QD (n = 7), G2) was 1. The “Aspartate aminotransferase increased” value (45 mg QD (n = 7), G2) was 1, the “Blood bilirubin increased, number” value (45 mg QD (n = 7), G2) was 1 and the “Cheilitis, number of patients” value (45 mg QD (n = 7), G2) was 0. For the same compound, the “Conjunctivitis, number of patients” value (45 mg QD (n = 7), G2) was 0, the “Decreased appetite, number of patients” value (45 mg QD (n = 7), G2) was 1 and the “Diarrhea, number of patients” value (45 mg QD (n = 7), G2) was 3. For the same compound, the “Dry skin, number of patients” value (45 mg QD (n = 7), G2) was 0, the “ECG QT prolonged, number of patients” value (45 mg QD (n = 7), G2) was 0 and the “Edema, number of patients” value (45 mg QD (n = 7), G2) was 1. The “Fatigue, number of patients” value (45 mg QD (n = 7), G2) was 4, the “Hematuria, number of patients” value (45 mg QD (n = 7), G2) was 0 and the “Hypertrichosis, number of patients” value (45 mg QD (n = 7), G2) was 0. For the same compound, the “Leukopenia, number of patients” value (45 mg QD (n = 7), G2) was 2, the “Nausea, number of patients” value (45 mg QD (n = 7), G2) was 1 and the “Palmar–plantar erythrodysesthesia” value (45 mg QD (n = 7), G2) was 2. The “Paronychia, number of patients” value (45 mg QD (n = 7), G2) was 5, the “Proteinuria, number of patients” value (45 mg QD (n = 7), G2) was 1 and the “Rash, number of patients” value (45 mg QD (n = 7), G2) was 4. For the same compound, the “Skin fissures, number of patients” value (45 mg QD (n = 7), G2) was 1, the “Stomatitis, number of patients” value (45 mg QD (n = 7), G2) was 1 and the “Weight decreased, number of patients” value (45 mg QD (n = 7), G2) was 2.
